# Assay results: patent US12679824B2 (Hoffmann-La Roche Inc., priority 2020, dated 2026)
# Test system: Acinetobacter baumannii ATCC17961
# Assay: 90% Growth Inhibitory Concentration (IC90) determination, antimicrobial susceptibility testing
# Format: cell-based
# Settings: Acinetobacter baumannii, ATCC17961, 16 h, Acinetobacter baumannii ATCC17961; Iso-Sensitest broth; growth by optical density at 600 nm over 16h; concentration inhibiting 90% of the growth; read-out: ATCC 17961 IC90
# Description: Antimicrobial Susceptibility Testing:
# 90% Growth Inhibitory Concentration (IC90) Determination
# The in vitro antimicrobial activity of the compounds was determined according to the following procedure:
# The assay used a 10-points Iso-Sensitest broth medium to measure quantitatively the in vitro activity of the compounds against Acinetobacter baumannii ATCC17961.
# Stock compounds in DMSO were serially twofold diluted (e.g. range from 50 to 0.097 μM final concentration) in 384 wells microtiter plates and inoculated with 49 μl the bacterial suspension in Iso-Sensitest medium to have a final cell concentration of ~5×10^(5) CFU/ml in a final volume/well of 50 ul/well. Microtiter plates were incubated at 35±2° C.
# Bacterial cell growth was determined with the measurement of optical density at λ=600 nm each 20 minutes over a time course of 16h. Growth inhibition was calculated during the logarithmic growth of the bacterial cells with determination of the concentration inhibiting 50% (IC50) and 90% (IC90) of the growth.
# Table 1 provides the 90% growth inhibitory concentrations (IC90) in micromoles per liter of the compounds of present invention obtained against the strain Acinetobacter baumannii ATCC17961.
row,SMILES,IC90
1,"COCCNc1ccc(-n2cc(-c3cnc(C(=O)Nc4ccc(C(=O)N5CCN(C(=O)C6CCNCC6)CC5)c(Cl)c4)n3C)c(C(F)(F)F)n2)nc1 [Example C2, N-[3-chloro-4-[4-(piperidine-4-carbonyl)piperazine-1-carbonyl]phenyl]-5-[1-[5-(2-methoxyethylamino)-2-pyridyl]-3-(trifluoromethyl)pyrazol-4-yl]-1-methyl-imidazole-2-carboxamide]",0.34 µM
2,"Cc1c[nH]nc1-n1cc(-c2cnc(C(=O)Nc3ccc(C(=O)N4CCN(C(=O)C5CCN(C)CC5)CC4)c(Cl)c3)n2C)c(C(F)(F)F)n1 [Example C15, N-[3-chloro-4-[4-(1-methylpiperidine-4-carbonyl)piperazine-1-carbonyl]phenyl]-1-methyl-5-[1-(4-methyl-1H-pyrazol-3-yl)-3-(trifluoromethyl)pyrazol-4-yl]imidazole-2-carboxamide]",0.91 µM
3,"COc1nccc(-n2cc(-c3cnc(C(=O)Nc4ccc(C(=O)N5CCN(C(=O)C6CCNCC6)CC5)c(Cl)c4)n3C)c(C(F)(F)F)n2)n1 [Example C6, N-[3-chloro-4-[4-(piperidine-4-carbonyl)piperazine-1-carbonyl]phenyl]-5-[1-(2-methoxypyrimidin-4-yl)-3-(trifluoromethyl)pyrazol-4-yl]-1-methyl-imidazole-2-carboxamide]",0.89 µM
4,"Cn1c(-c2cn(-c3ccc(NCCC(N)=O)cn3)nc2C(F)(F)F)cnc1C(=O)Nc1ccc(C(=O)N2CCN(C(=O)C3CCNCC3)CC2)c(Cl)c1 [Example C3, 5-[1-[5-[(3-amino-3-oxo-propyl)amino]-2-pyridyl]-3-(trifluoromethyl)pyrazol-4-yl]-N-[3-chloro-4-[4-(piperidine-4-carbonyl)piperazine-1-carbonyl]phenyl]-1-methyl-imidazole-2-carboxamide]",1.2 µM
5,"CN1CCC(C(=O)N2CCN(C(=O)c3ccc(NC(=O)c4ncc(-c5cn(-c6ccc(N)cn6)nc5C(F)F)n4C)cc3Cl)CC2)CC1 [Example C9, 5-[1-(5-amino-2-pyridyl)-3-(difluoromethyl)pyrazol-4-yl]-N-[3-chloro-4-[4-(1-methylpiperidine-4-carbonyl)piperazine-1-carbonyl]phenyl]-1-methyl-imidazole-2-carboxamide]",0.42 µM
6,"Cn1c(-c2cn(-c3ccc([N+](=O)[O-])cn3)nc2C(F)(F)F)cnc1C(=O)Nc1ccc(C(=O)N2CCN(C(=O)[C@H]3NCC[C@@H]3O)CC2)c(Cl)c1 [Example C17, N-[3-chloro-4-[4-[(2S,3S)-3-hydroxypyrrolidine-2-carbonyl]piperazine-1-carbonyl]phenyl]-1-methyl-5-[1-(5-nitro-2-pyridyl)-3-(trifluoromethyl)pyrazol-4-yl]imidazole-2-carboxamide]",0.79 µM
7,"Cn1c(-c2cn(-c3ccc(N)cn3)nc2C(F)(F)F)cnc1C(=O)Nc1ccc(C(=O)NCc2cc[nH]n2)c(Cl)c1 [Example I2, 5-[1-(5-amino-2-pyridyl)-3-(trifluoromethyl)pyrazol-4-yl]-N-[3-chloro-4-(1H-pyrazol-3-ylmethylcarbamoyl)phenyl]-1-methyl-imidazole-2-carboxamide]",0.4 µM
8,"CNc1ccc(-n2cc(-c3cnc(C(=O)Nc4ccc(C(=O)N5CCN(C(=O)[C@H]6NCC[C@@H]6O)CC5)c(Cl)c4)n3C)c(C(F)(F)F)n2)nc1 [Example D4, N-[3-chloro-4-[4-[(2S,3S)-3-hydroxypyrrolidine-2-carbonyl]piperazine-1-carbonyl]phenyl]-1-methyl-5-[1-[5-(methylamino)-2-pyridyl]-3-(trifluoromethyl)pyrazol-4-yl]imidazole-2-carboxamide]",0.52 µM
9,"Cn1c(-c2cn(-c3ccc(N)cn3)nc2C(F)(F)F)cnc1C(=O)Nc1ccc(C(=O)NCC2CCN(C(=O)C3CCNCC3)CC2)c(Cl)c1 [Example C7, 5-[1-(5-amino-2-pyridyl)-3-(trifluoromethyl)pyrazol-4-yl]-N-[3-chloro-4-[[1-(piperidine-4-carbonyl)-4-piperidyl]methylcarbamoyl]phenyl]-1-methyl-imidazole-2-carboxamide]",0.66 µM
10,"Cn1c(-c2cn(-c3nccc(N)n3)nc2C(F)(F)F)cnc1C(=O)Nc1ccc(C(=O)N2CCN(C(=O)C3CCNCC3)CC2)c(Cl)c1 [Example A15, 5-[1-(4-aminopyrimidin-2-yl)-3-(trifluoromethyl)pyrazol-4-yl]-N-[3-chloro-4-[4-(piperidine-4-carbonyl)piperazine-1-carbonyl]phenyl]-1-methyl-imidazole-2-carboxamide]",0.59 µM

# Continued, values first:
row,IC90,SMILES
1,0.37 µM,"Cn1c(-c2cn(-c3ccc(N)cn3)nc2C(F)(F)F)cnc1C(=O)Nc1ccc(C(=O)N2CCC3(CCNC3)CC2)c(Cl)c1 [Example Z8, 5-[1-(5-amino-2-pyridyl)-3-(trifluoromethyl)pyrazol-4-yl]-N-[3-chloro-4-(2,8-diazaspiro[4.5]decane-8-carbonyl)phenyl]-1-methyl-imidazole-2-carboxamide]"
2,0.81 µM,"Cn1c(-c2cn(-c3ccc(N)cn3)nc2C(F)(F)F)cnc1C(=O)Nc1ccc(C(=O)N2CC[C@H](CNC(=O)[C@@H]3C[C@@H](O)CN3)C2)c(Cl)c1 [Example Z44, 5-[1-(5-amino-2-pyridyl)-3-(trifluoromethyl)pyrazol-4-yl]-N-[3-chloro-4-[(3R)-3-[[[(2S,4R)-4-hydroxyprolyl]amino]methyl]pyrrolidine-1-carbonyl]phenyl]-1-methyl-imidazole-2-carboxamide]"
3,0.4 µM,"C[C@H]1CNCCN1C(=O)c1ccc(NC(=O)c2ncc(-c3cn(-c4ccc(N)cn4)nc3C(F)(F)F)n2C)cc1Cl [Example Z56, 5-[1-(5-amino-2-pyridyl)-3-(trifluoromethyl)pyrazol-4-yl]-N-[3-chloro-4-[(2S)-2-methylpiperazine-1-carbonyl]phenyl]-1-methyl-imidazole-2-carboxamide]"
4,0.51 µM,"Cn1c(-c2cn(-c3ccc(N)cn3)nc2C(F)(F)F)cnc1C(=O)Nc1ccc(C(=O)N[C@H]2CC[C@H](NC(=O)[C@@H]3C[C@@H](O)CN3)C2)c(Cl)c1 [Example Z48, 5-[1-(5-amino-2-pyridyl)-3-(trifluoromethyl)pyrazol-4-yl]-N-[3-chloro-4-[[(1S,3S)-3-[[(2S,4R)-4-hydroxyprolyl]amino]cyclopentyl]carbamoyl]phenyl]-1-methyl-imidazole-2-carboxamide]"
5,0.46 µM,"Cn1c(-c2cn(-c3ccc(N)cn3)nc2C(F)(F)F)cnc1C(=O)Nc1ccc(C(=O)N2CCC(NC(=O)[C@@H]3C[C@@H](O)CN3)CC2)c(Cl)c1 [Example Z24, 5-[1-(5-amino-2-pyridyl)-3-(trifluoromethyl)pyrazol-4-yl]-N-[3-chloro-4-[4-[[(2S,4R)-4-hydroxyprolyl]amino]piperidine-1-carbonyl]phenyl]-1-methyl-imidazole-2-carboxamide]"
6,0.23 µM,"Cn1c(-c2cn(-c3ccc(N)nc3F)nc2C(F)(F)F)cnc1C(=O)Nc1ccc(C(=O)N2CCN(C(=O)C3CCNCC3)CC2)c(Cl)c1 [Example Z84, 5-[1-(6-amino-2-fluoro-3-pyridyl)-3-(trifluoromethyl)pyrazol-4-yl]-N-[3-chloro-4-[4-(piperidine-4-carbonyl)piperazine-1-carbonyl]phenyl]-1-methyl-imidazole-2-carboxamide]"
7,0.33 µM,"Cn1c(-c2cn(-c3ccc(N)nc3)nc2C(F)(F)F)cnc1C(=O)Nc1ccc(C(=O)N2CCN(C(=O)C3CCNCC3)CC2)c(Cl)c1 [Example Z10, 5-[1-(6-amino-3-pyridyl)-3-(trifluoromethyl)pyrazol-4-yl]-N-[3-chloro-4-(4-isonipecotoylpiperazine-1-carbonyl)phenyl]-1-methyl-imidazole-2-carboxamide]"
8,0.93 µM,"Cn1c(-c2cn(-c3ccc(N)cn3)nc2C(F)(F)F)cnc1C(=O)Nc1ccc(C(=O)N2CC3CNCC3C2)c(Cl)c1 (stereo not drawn) [Example Z12, N-[4-(2,3,3a,4,6,6a-hexahydro-1H-pyrrolo[3,4-c]pyrrole-5-carbonyl)-3-chloro-phenyl]-5-[1-(5-amino-2-pyridyl)-3-(trifluoromethyl)pyrazol-4-yl]-1-methyl-imidazole-2-carboxamide]"
9,0.86 µM,"COc1cccc(-n2cc(-c3cnc(C(=O)Nc4ccc(C(=O)N5CCN(C(=O)C6CCNCC6)CC5)c(Cl)c4)n3C)c(C(F)(F)F)n2)n1 [Example Z31, N-[3-chloro-4-(4-isonipecotoylpiperazine-1-carbonyl)phenyl]-5-[1-(6-methoxy-2-pyridyl)-3-(trifluoromethyl)pyrazol-4-yl]-1-methyl-imidazole-2-carboxamide]"
10,0.54 µM,"Cn1c(-c2cn(-c3cc(N)c(N)cn3)nc2C(F)(F)F)cnc1C(=O)Nc1ccc(C(=O)N2CCN(C(=O)C3CCNCC3)CC2)c(Cl)c1 [Example Z87, N-[3-chloro-4-[4-(piperidine-4-carbonyl)piperazine-1-carbonyl]phenyl]-5-[1-(4,5-diamino-2-pyridyl)-3-(trifluoromethyl)pyrazol-4-yl]-1-methyl-imidazole-2-carboxamide]"

# Same assay, conditions: Acinetobacter baumannii, ATCC17961, 16 h, read-out: ATCC 17961 IC90
row,SMILES,IC90
1,"COCCn1cc(-n2cc(-c3cnc(C(=O)Nc4ccc(C(=O)N5CCN(C(=O)C6CCNCC6)CC5)c(Cl)c4)n3C)c(C(F)(F)F)n2)cn1 [Example E1, N-[3-chloro-4-[4-(piperidine-4-carbonyl)piperazine-1-carbonyl]phenyl]-5-[1-[1-(2-methoxyethyl)pyrazol-4-yl]-3-(trifluoromethyl)pyrazol-4-yl]-1-methyl-imidazole-2-carboxamide]",0.88 µM
